Test system: carbachol precontracted human bladder strips
Assay: Relaxation of carbachol-precontracted human detrusor strips
Assay type: tissue-based
Conditions: carbachol 10^-6 M precontraction; cumulative 10^-9 to 3.10^-5 M; compared with tadalafil, sildenafil, vardenafil; FIG. 1
Procedure: The experiments, collection and use of any tissue or other samples were carried out in accordance with the Research Plan, all relevant laws, regulations and codes of practice, including having obtaining informed consent of patients in writing. Bladders were obtained from donors undergoing cystectomy for infiltrating bladder cancer with no known bladder dysfunction according to their medical chart. In accordance with French legislation, human tissue samples were obtained with patient informed consent and after hepatitis and HIV serologies determination. After surgical procedure, bladder samples were immediately transported from the operating room to the pathologist facilities where a normal piece of the bladder dome, i.e. with no macroscopic tumoral tissue, was selected for experiments by the pathologist. […] The strips were connected to force transducers (Pioden Controls Ltd, UK) and following amplification, the tension changes were recorded via MacLab™/8 using Chart™ 5 software (AD Instruments Ltd). […] For the evaluation of the effect of drugs to inhibit carbachol-induced contractions, relaxations in response to increasing and cumulative concentrations of PDE5 inhibitors or oxybutynin or corresponding concentrations of vehicle are expressed as the percentage of inhibition of the contractile response to carbachol. […]

CCCOc1ccc(S(=O)(=O)NCCC2CCCN2C)cc1-c1nc2c(CCC)nn(C)c2c(=O)[nH]1 (stereo not shown) [Udenafil, 5-[2-propyloxy-5-(1-methyl-2-pyrrolidinylethylamidosulfonyl)phenyl]-methyl-3-propyl-1,6-dihydro-7H-pyrazolo(4,3-d)pyrimidine-7-one]
inhibitory effect to relax carbachol-induced contractions of human bladder strips: greater inhibitory effect than the other PDE-5 inhibitors tested

— patent publication US20110021542A1, “Use of a Combination of Udenafil and Alfuzosin or Oxybutynin for the Treatment of Overactive Bladder” (PELVIPHARM, priority 2008, published 2011)
